Experimental data as given in ChEMBL document CHEMBL1137726, “Novel 4-aryl-pyrido[1,2-c]pyrimidines with dual SSRI and 5-HT1A activity, part 1” (Eur J Med Chem, 2009).
Calls of active or inactive are those of the source. No cut-off for these calls is given here.

Assays:
[1] = tested on: Mus musculus; assay: Reduction of immobility time in Albino Swiss mouse at 20 mg/kg, ip pretreated for 30 mins by forced swimming test; type: functional
[2] = tested on: Mus musculus; assay: Induction of hypothermia in Albino Swiss mouse assessed as change in body temperature pretreated for 30 mins at 5 mg/kg, ip measured 60 mins after drug dose; type: functional, organism-based; design: dose 5 mg/kg
[3] = tested on: Mus musculus; assay: Induction of hypothermia in Albino Swiss mouse assessed as change in body temperature pretreated for 30 mins at 20 mg/kg, ip measured 120 mins after drug dose; type: functional, organism-based; design: dose 20 mg/kg
[4] = tested on: Mus musculus; assay: Induction of hypothermia in Albino Swiss mouse assessed as change in body temperature pretreated for 30 mins at 5 mg/kg, ip measured 90 mins after drug dose; type: functional, organism-based; design: dose 5 mg/kg
[5] = tested on: Mus musculus; assay: Induction of hypothermia in Albino Swiss mouse assessed as change in body temperature pretreated for 30 mins at 20 mg/kg, ip measured 60 mins after drug dose; type: functional, organism-based; design: dose 20 mg/kg
[6] = tested on: Mus musculus; assay: Reduction of immobility time in Albino Swiss mouse at 10 mg/kg, ip pretreated for 30 mins by forced swimming test; type: functional
[7] = target: T1, 5-hydroxytryptamine receptor 1A (Rattus norvegicus, UniProt P19327); assay: Displacement of [3H]8-OH-DPAT from 5HT1A receptor in rat brain membranes; type: cell membranes
T1 sequence (P19327 whole entry): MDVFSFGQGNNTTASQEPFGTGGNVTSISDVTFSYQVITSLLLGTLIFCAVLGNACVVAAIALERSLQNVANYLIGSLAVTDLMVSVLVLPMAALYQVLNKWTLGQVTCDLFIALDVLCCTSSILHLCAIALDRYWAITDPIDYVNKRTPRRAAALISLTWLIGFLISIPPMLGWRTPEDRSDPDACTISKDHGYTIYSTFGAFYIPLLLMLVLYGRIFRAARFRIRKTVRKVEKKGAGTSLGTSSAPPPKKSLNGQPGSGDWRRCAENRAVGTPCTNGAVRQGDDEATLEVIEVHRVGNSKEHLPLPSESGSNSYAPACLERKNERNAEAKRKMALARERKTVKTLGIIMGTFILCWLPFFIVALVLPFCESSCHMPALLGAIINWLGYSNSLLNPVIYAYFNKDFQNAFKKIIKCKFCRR

[8] = tested on: Mus musculus; assay: Induction of hypothermia in Albino Swiss mouse assessed as change in body temperature pretreated for 30 mins at 10 mg/kg, ip measured 120 mins after drug dose; type: functional, organism-based; design: dose 10 mg/kg
[9] = tested on: Mus musculus; assay: Induction of hypothermia in 0.1 mg/kg WAY 100635 pretreated Albino Swiss mouse assessed as change in body temperature at 20 mg/kg, ip measured 30 mins after drug dose; type: functional, organism-based
[10] = tested on: Mus musculus; assay: Induction of hypothermia in Albino Swiss mouse assessed as change in body temperature pretreated for 30 mins at 10 mg/kg, ip measured 60 mins after drug dose; type: functional, organism-based; design: dose 10 mg/kg
[11] = tested on: Mus musculus; assay: Induction of hypothermia in Albino Swiss mouse assessed as change in body temperature pretreated for 30 mins at 10 mg/kg, ip measured 90 mins after drug dose; type: functional, organism-based; design: dose 10 mg/kg
[12] = target: Sodium-dependent serotonin transporter (Rattus norvegicus, UniProt P31652); assay: Displacement of [3H]citalopram from 5HTT in rat brain membranes; type: cell membranes
[13] = tested on: Mus musculus; assay: Induction of hypothermia in Albino Swiss mouse assessed as change in body temperature pretreated for 30 mins at 20 mg/kg, ip measured 30 mins after drug dose; type: functional, organism-based; design: dose 20 mg/kg
[14] = tested on: Mus musculus; assay: Induction of hypothermia in Albino Swiss mouse assessed as change in body temperature pretreated for 30 mins at 20 mg/kg, ip measured 90 mins after drug dose; type: functional, organism-based; design: dose 20 mg/kg
[15] = tested on: Mus musculus; assay: Induction of hypothermia in 0.1 mg/kg WAY 100635 pretreated Albino Swiss mouse assessed as change in body temperature at 20 mg/kg, ip measured 60 mins after drug dose; type: functional, organism-based
[16] = tested on: Mus musculus; assay: Induction of hypothermia in Albino Swiss mouse assessed as change in body temperature pretreated for 30 mins at 5 mg/kg, ip measured 30 mins after drug dose; type: functional, organism-based; design: dose 5 mg/kg
[17] = tested on: Mus musculus; assay: Induction of hypothermia in Albino Swiss mouse assessed as change in body temperature pretreated for 30 mins at 5 mg/kg, ip measured 120 mins after drug dose; type: functional, organism-based; design: dose 5 mg/kg
[18] = tested on: Mus musculus; assay: Induction of hypothermia in Albino Swiss mouse assessed as change in body temperature pretreated for 30 mins at 10 mg/kg, ip measured 30 mins after drug dose; type: functional, organism-based; design: dose 10 mg/kg
[19] = tested on: Mus musculus; assay: Effect on spontaneous locomotor activity in Albino Swiss mouse assessed as number of light-beam crossings in actiometers pretreated for 30 mins at 20 mg/kg, ip measured during 30 mins post drug dose; type: functional; settings: route intraperitoneal
[20] = tested on: Mus musculus; assay: Effect on spontaneous locomotor activity in Albino Swiss mouse assessed as number of light-beam crossings in actiometers pretreated for 30 mins at 20 mg/kg, ip measured during 6 mins post drug dose; type: functional; settings: route intraperitoneal
[21] = tested on: Mus musculus; assay: Effect on spontaneous locomotor activity in Albino Swiss mouse assessed as number of light-beam crossings in actiometers pretreated for 30 mins at 10 mg/kg, ip measured during 6 mins post drug dose; type: functional; settings: route intraperitoneal
[22] = species on record: Mus musculus; settings: Albino Swiss, 10 mg/kg
Description: Induction of hypothermia in 0.1 mg/kg WAY 100635 pretreated Albino Swiss mouse assessed as change in body temperature at 10 mg/kg, ip measured 30 mins after drug dose

[23] = species on record: Mus musculus; settings: Albino Swiss, 10 mg/kg; remark: listed apart in the source
Description: Induction of hypothermia in 0.1 mg/kg WAY 100635 pretreated Albino Swiss mouse assessed as change in body temperature at 10 mg/kg, ip measured 60 mins after drug dose

[24] = tested on: Mus musculus; assay: Effect on spontaneous locomotor activity in Albino Swiss mouse assessed as number of light-beam crossings in actiometers pretreated for 30 mins at 10 mg/kg, ip measured during 30 mins post drug dose; type: functional; settings: route intraperitoneal
[25] = tested on: Mus musculus; assay: Inhibition of 8-OH-DPAT-induced hypothermia in Albino Swiss mouse assessed as change in body temperature at 20 mg/kg, ip; type: functional, organism-based; design: dose 20 mg/kg
[26] = tested on: Mus musculus; assay: Reduction of immobility time in Albino Swiss mouse at 2 mg/kg, ip pretreated for 30 mins by forced swimming test; type: functional; design: scale not given: the % may be the effect or the level left; settings: route intraperitoneal
[27] = tested on: Mus musculus; assay: Reduction of immobility time in Albino Swiss mouse at 1 mg/kg, ip pretreated for 30 mins by forced swimming test; type: functional; design: scale not given: the % may be the effect or the level left; settings: route intraperitoneal
[28] = tested on: Mus musculus; assay: Reduction of spontaneous locomotor activity in Albino Swiss mouse at 20 mg/kg, ip during 6 mins; type: functional, organism-based; design: dose 20 mg/kg
[29] = tested on: Mus musculus; assay: Reduction of spontaneous locomotor activity in Albino Swiss mouse at 20 mg/kg, ip during 30 mins; type: functional, organism-based; design: dose 20 mg/kg

Sequence of Sodium-dependent serotonin transporter (P31652 whole entry): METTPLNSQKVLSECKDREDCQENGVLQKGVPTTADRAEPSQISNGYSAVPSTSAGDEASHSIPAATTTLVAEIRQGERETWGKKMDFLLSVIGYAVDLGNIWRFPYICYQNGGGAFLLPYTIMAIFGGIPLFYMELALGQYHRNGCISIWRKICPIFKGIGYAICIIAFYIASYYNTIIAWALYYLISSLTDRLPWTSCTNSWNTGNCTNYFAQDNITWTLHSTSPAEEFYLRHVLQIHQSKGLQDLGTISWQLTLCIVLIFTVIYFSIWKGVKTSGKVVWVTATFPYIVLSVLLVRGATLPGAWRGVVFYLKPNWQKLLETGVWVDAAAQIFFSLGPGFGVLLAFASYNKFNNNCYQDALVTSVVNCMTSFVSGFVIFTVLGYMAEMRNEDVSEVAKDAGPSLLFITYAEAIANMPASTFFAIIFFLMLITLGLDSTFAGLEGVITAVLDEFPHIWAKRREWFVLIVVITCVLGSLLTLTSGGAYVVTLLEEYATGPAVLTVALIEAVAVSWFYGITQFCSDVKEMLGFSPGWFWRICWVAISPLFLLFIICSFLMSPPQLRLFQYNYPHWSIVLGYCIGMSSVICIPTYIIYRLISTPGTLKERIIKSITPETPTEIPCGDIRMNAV

SMILES | Ki [7] | Ki [12] | deltaT [2] | deltaT [3] | deltaT [4] | deltaT [5] | deltaT [8] | deltaT [9] | deltaT [10] | deltaT [11] | deltaT [13] | deltaT [14] | deltaT [15] | deltaT [16] | deltaT [17] | deltaT [18] | further results
COc1ccc2[nH]cc(C3CCN(CCCCn4c(=O)c(-c5ccccc5)c5ccccn5c4=O)CC3)c2c1 | 52.3 nM | 129 nM | – | – | – | – | – | – | – | – | – | – | – | – | – | – | –
COc1ccc2[nH]cc(C3CCN(CCCCn4c(=O)c(-c5ccc(F)cc5)c5ccccn5c4=O)CC3)c2c1 | 34.6 nM | 54.6 nM | – | – | – | – | – | – | – | – | – | – | – | – | – | – | –
COc1ccc(-c2c(=O)n(CCCCN3CCC(c4c[nH]c5ccc(OC)cc45)CC3)c(=O)n3ccccc23)cc1 | 78 nM | 129 nM | – | – | – | – | – | – | – | – | – | – | – | – | – | – | –
O=c1c(-c2ccc(Cl)cc2)c2ccccn2c(=O)n1CCCCN1CCC(c2c[nH]c3ccccc23)CC1 | 37.1 nM | 280 nM | -0.4 °C | -0.7 °C | -0.4 °C | -1 °C | -0.1 °C | -0.4 °C | -0.1 °C | -0.1 °C | -1.2 °C | -1.1 °C | -0.2 °C | -0.5 °C | -0.2 °C | -0.4 °C | –
COc1ccc2[nH]cc(C3CCN(CCCCn4c(=O)c(-c5ccc(C)cc5)c5ccccn5c4=O)CC3)c2c1 | 59 nM | 223 nM | – | – | – | – | – | – | – | – | – | – | – | – | – | – | –
COc1ccc(-c2c(=O)n(CCCCN3CCC(c4c[nH]c5ccccc45)CC3)c(=O)n3ccccc23)cc1 | 42.1 nM | 145 nM | -0.6 °C | -0.1 °C | -0.6 °C | -0.2 °C | -0.2 °C | – | -0.3 °C | -0.1 °C | -0.3 °C | -0.2 °C | – | -0.3 °C | -0.4 °C | -0.3 °C | Activity [25]: inactive
COc1ccc2[nH]cc(C3CCN(CCCCn4c(=O)c(-c5ccc(Cl)cc5)c5ccccn5c4=O)CC3)c2c1 | 41.1 nM | 251 nM | – | – | – | – | – | – | – | – | – | – | – | – | – | – | –
Br.CCCN(CCC)C1CCc2cccc(O)c2C1 (configuration not stated) | – | – | – | – | – | – | – | – | – | – | – | – | – | – | – | – | Activity [26]: 57%; Activity [27]: 45%

Continued by falling Ki [7], values first:

Ki [7] | Ki [12] | SMILES | deltaT [2] | deltaT [3] | deltaT [4] | deltaT [5] | deltaT [8] | deltaT [9] | deltaT [10] | deltaT [11] | deltaT [13] | deltaT [14] | deltaT [15] | deltaT [16] | deltaT [17] | deltaT [18] | further results
16.7 nM | 59.3 nM | COc1ccc2[nH]cc(C3CCN(CCCCn4c(=O)c(-c5ccccc5F)c5ccccn5c4=O)CC3)c2c1 | – | – | – | – | – | – | – | – | – | – | – | – | – | – | –
10.9 nM | 58.1 nM | O=c1c(-c2ccccc2)c2ccccn2c(=O)n1CCCCN1CCC(c2c[nH]c3ccccc23)CC1 | -0.5 °C | -1.9 °C | -0.4 °C | -1.3 °C | -0.1 °C | -0.5 °C | -0.4 °C | -0.3 °C | -1.2 °C | -1.1 °C | -0.3 °C | -0.4 °C | -0.1 °C | -0.8 °C | Activity ([6]; route intraperitoneal): 29%; Activity [19]: 926; Activity [20]: 409
9.2 nM | 37.6 nM | O=c1c(-c2ccc(F)cc2)c2ccccn2c(=O)n1CCCCN1CCC(c2c[nH]c3ccccc23)CC1 | -0.3 °C | -0.6 °C | -0.4 °C | -1 °C | -0.8 °C | – | -1.2 °C | -1 °C | -1.2 °C | -0.8 °C | – | -0.4 °C | -0.3 °C | -1.2 °C | Activity ([1]; route intraperitoneal): 34%; Activity [21]: 376; deltaT [22]: -0.8 °C; deltaT [23]: -0.8 °C; Activity [24]: 965
5.8 nM | 0.3 nM | Cc1ccc(-c2c(=O)n(CCCCN3CCC(c4c[nH]c5ccccc45)CC3)c(=O)n3ccccc23)cc1 | 0.2 °C | -0.8 °C | -0.1 °C | -0.8 °C | -0.1 °C | -0.3 °C | -0.3 °C | -0.1 °C | -1 °C | -0.7 °C | -0.2 °C | -0.4 °C | -0.1 °C | -0.5 °C | Activity [1]: inactive; Activity [6]: inactive
4.8 nM | 0.7 nM | O=c1c(-c2ccccc2F)c2ccccn2c(=O)n1CCCCN1CCC(c2c[nH]c3ccccc23)CC1 | -0.3 °C | -0.7 °C | -0.1 °C | -0.8 °C | -0.1 °C | -0.3 °C | -0.2 °C | -0.3 °C | -1.1 °C | -0.7 °C | -0.1 °C | -0.5 °C | -0.1 °C | -0.8 °C | Activity [28]: Active; Activity [21]: 179; Activity ([6]; route intraperitoneal): 40%; Activity [29]: Active; Activity [24]: 399
